{
  "source": "patent US12642793B2",
  "about": "“Compositions and methods to treat gastrointestinal diseases and disorders” (CEDARS-SINAI MEDICAL CENTER, priority 2019, dated 2026)",
  "key": {"[1]": {"test_system": "anaerobes in patient duodenum aspirate", "assay": "Culture of patient duodenum aspirate on blood agar", "assay_type": "cell-based", "conditions": "for Blood agar (CFU/mL), Before Rifaximin: With DTT", "excerpt": "(§1) Culture: blood agar and MacConkey aerobically, and blood agar anaerobically. […] Culture: MacConkey aerobically and blood agar anaerobically. […] Culture: MacConkey aerobically and blood agar anaerobically. […] Culture: MacConkey aerobically and blood agar anaerobically. […]"}, "[2]": {"test_system": "Gram-negative bacteria in patient duodenum aspirate", "assay": "Culture of patient duodenum aspirate on MacConkey agar aerobically", "assay_type": "cell-based", "conditions": "for MacConkey agar (CFU/mL), Before Rifaximin: With DTT; for MacConkey agar (CFU/mL), Rifaximin treatment: aerobically", "excerpt": "as §1"}, "[3]": {"conditions": "Experiment 1, rifaximin dose 0.01 g/mL"}},
  "data": [
    {"smiles": "O[C@H](CS)[C@H](O)CS", "note": "(racemic) [DTT, dithiothreitol]", "values": [
      {"measurement": "Blood agar (CFU/mL), Before Rifaximin", "setting": "[1]; Experiment 1", "result": 72000, "unit": "CFU/mL"},
      {"measurement": "Blood agar (CFU/mL), Before Rifaximin", "setting": "[1]; Experiment 2", "result": "too high"},
      {"measurement": "Blood agar (CFU/mL), Before Rifaximin", "setting": "[1]; Experiment 3", "result": 60000, "unit": "CFU/mL"},
      {"measurement": "Blood agar (CFU/mL), Before Rifaximin", "setting": "[1]; Experiment 4", "result": 1600000, "unit": "CFU/mL"},
      {"measurement": "MacConkey agar (CFU/mL), Before Rifaximin", "setting": "[2]; Experiment 1", "result": 4800, "unit": "CFU/mL"},
      {"measurement": "MacConkey agar (CFU/mL), Before Rifaximin", "setting": "[2]; Experiment 2", "result": 338000, "unit": "CFU/mL"},
      {"measurement": "MacConkey agar (CFU/mL), Before Rifaximin", "setting": "[2]; Experiment 3", "result": 20, "unit": "CFU/mL"},
      {"measurement": "MacConkey agar (CFU/mL), Before Rifaximin", "setting": "[2]; Experiment 4", "result": 0, "unit": "CFU/mL"}
    ]},
    {"smiles": "CO[C@H]1/C=C/O[C@@]2(C)Oc3c(C)c(O)c4c(O)c(c5c(nc6cc(C)ccn65)c4c3C2=O)NC(=O)/C(C)=C\\C=C\\[C@H](C)[C@H](O)[C@@H](C)[C@@H](O)[C@@H](C)[C@H](OC(C)=O)[C@@H]1C", "note": "[Rifaximin, rifaximin]", "values": [
      {"measurement": "Blood agar (CFU/mL), Rifaximin treatment", "setting": "[1]; [3]", "result": 6000, "unit": "CFU/mL"},
      {"measurement": "Blood agar (CFU/mL), Rifaximin treatment", "setting": "[1]; Experiment 2, rifaximin dose 0.1 g/mL, anaerobically", "result": "too high"},
      {"measurement": "Blood agar (CFU/mL), Rifaximin treatment", "setting": "[1]; Experiment 3, rifaximin dose 0.01 g/mL, anaerobically", "result": 800, "unit": "CFU/mL"},
      {"measurement": "Blood agar (CFU/mL), Rifaximin treatment", "setting": "[1]; Experiment 4, rifaximin dose 0.1 g/mL, anaerobically", "result": 16000, "unit": "CFU/mL"},
      {"measurement": "MacConkey agar (CFU/mL), Rifaximin treatment", "setting": "[2]; [3]", "result": 4000, "unit": "CFU/mL"},
      {"measurement": "MacConkey agar (CFU/mL), Rifaximin treatment", "setting": "[2]; Experiment 2, rifaximin dose 0.1 g/mL", "result": 343000, "unit": "CFU/mL"},
      {"measurement": "MacConkey agar (CFU/mL), Rifaximin treatment", "setting": "[2]; Experiment 3, rifaximin dose 0.01 g/mL", "result": 40, "unit": "CFU/mL"},
      {"measurement": "MacConkey agar (CFU/mL), Rifaximin treatment", "setting": "[2]; Experiment 4, rifaximin dose 0.1 g/mL", "result": 0, "unit": "CFU/mL"}
    ]}
  ]
}
